Assay: Stability of rotaxane positional isomers to heating or standing, followed by 1H NMR
Type: physicochemical
Procedure: The properties of the 1:0:0‐, 0:1:0‐ and 0:0:1‐diastereomers of 24C8⊂16 were probed using a range of spectroscopic and spectrometric techniques. No change in the ^1H NMR spectra of the rotaxane positional isomers occurred upon heating at 70 °C in DMSO‐d6 for 2 h, or after prolonged periods at room temperature. […] When compared to the noninterlocked thread peptide 16; significant downfield shifts are observed for Hb in 1:0:0–24C8⊂16 (ΔδHb = +0.45 ppm), Hh in 0:1:0–24C8⊂16 (ΔδHh = +0.30 ppm) and Hq in 0:0:1–24C8⊂16 (ΔδHq = +0.21 ppm). The protons associated with the encapsulated glycine residue are also downshifted (protons Hf, Ho and Hu, in 1:0:0–24C8⊂16, 0:1:0–24C8⊂16 and 0:0:1–24C8⊂16, respectively). Substantial upfield shifts for the amide protons Ha, He, Hg, Hn (ΔδH = −0.78, −0.43, −0.40, and −0.49 ppm) in 1:0:0–24C8⊂16, Hg, Hn, Hp, and Ht in 0:1:0–24C8⊂16 (ΔδH = −0.26, −0.48, −0.45, and −0.44 ppm), and Hp, Ht and Hv (ΔδH = −0.33, −0.44, and −0.63 ppm) in 0:0:1–24C8⊂16 indicate that the crown ether also interacts with the amide group of the C‐adjacent residue. As in the tripeptide rotaxanes 24C8⊂4–14, the diastereotopic splitting for the encapsulated glycine methylene becomes more pronounced, as do the protons of the leucine residue (Hd), within 1:0:0–24C8⊂16. The presence of the macrocycle reduces the rotation of nearby amides within the compartment it occupies.

In the case of “Boc‐Leu‐Gly‐Trp‐Gly‐Tyr(TIPS)‐Gly‐Phe‐OMe [1:0:0–24C8⊂16, 24C8 crown ether–heptapeptide [2]rotaxane, ring on left‐hand glycine between Boc‐Leu and Trp of axle 16]”, the “change in the 1H NMR spectra (interconversion of positional isomers or dethreading of macrocycle)” value (heating at 70 °C in DMSO-d6 for 2 h) is reported as “No change” and the “change in the 1H NMR spectra (interconversion of positional isomers or dethreading of macrocycle)” value (prolonged periods at room temperature) is reported as “No change”.
